Laboratory results reported in the supplement of paper PMC10307832.

Experiments:
Test in all cases: relative viability (nuclei count vs DMSO), 5 days (fraction); higher = more cells survive
[1] = compound: CS(=O)(=O)c1ccc(-c2cnc(N)c(C(=O)Nc3ccccc3)n2)cc1 [VE-821] + CC(=O)c1c(C)c2cnc(Nc3ccc(N4CCNCC4)cn3)nc2n(C2CCCC2)c1=O [Palbociclib] (partner 0.5 µM)
Method in brief: (§1)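 Lung cancer cell lines were pin-tool dosed in 1536-well plates on the day after seeding, with either a lone drug or a fixed anchor-drug dose plus five library-drug doses (not always all listed) in √10 steps. Nuclei were counted on 4× images after 5 days. Relative viability is the ratio of treated-well to vehicle-well nuclei counts, with each value a median of duplicate plates.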

[2] = compound: CS(=O)(=O)c1ccc(-c2cnc(N)c(C(=O)Nc3ccccc3)n2)cc1 [VE-821] + CS(=O)(=O)CCNCc1ccc(-c2ccc3ncnc(Nc4ccc(OCc5cccc(F)c5)c(Cl)c4)c3c2)o1 [Lapatinib] (partner 2 µM)
Method in brief: as §1

[3] = compound: CS(=O)(=O)c1ccc(-c2cnc(N)c(C(=O)Nc3ccccc3)n2)cc1 [VE-821] + Nc1ncn([C@H]2C[C@H](O)[C@@H](CO)O2)c(=O)n1 [Decitabine] (partner 2 µM)
Method in brief: as §1

[4] = compound: N#CC[C@H](C1CCCC1)n1cc(-c2ncnc3[nH]ccc23)cn1 [Ruxolitinib] + COc1cccc2cc(-c3nc([C@H]4CC[C@H](C(=O)O)CC4)n4ncnc(N)c34)[nH]c12 [OSI-027] (partner 0.5 µM)
Method in brief: as §1

UMC-11
relative viability ([1]; first compound 0.08 µM): 0.339 | relative viability ([1]; first compound 0.253 µM): 0.309 | relative viability ([1]; first compound 0.8 µM): 0.338 | relative viability ([1]; first compound 2.53 µM): 0.377 | relative viability ([1]; first compound 8 µM): 0.299 | relative viability ([2]; first compound 0.08 µM): 1.23 | relative viability ([2]; first compound 0.253 µM): 0.845 | relative viability ([2]; first compound 0.8 µM): 0.916 | relative viability ([2]; first compound 2.53 µM): 1.12 | relative viability ([2]; first compound 8 µM): 0.644 | relative viability ([3]; first compound 0.08 µM): 0.687 | relative viability ([3]; first compound 0.253 µM): 0.617 | relative viability ([3]; first compound 0.8 µM): 0.583 | relative viability ([3]; first compound 2.53 µM): 0.664 | relative viability ([3]; first compound 8 µM): 0.479 | relative viability ([4]; first compound 0.08 µM): 0.474 | relative viability ([4]; first compound 0.253 µM): 0.448 | relative viability ([4]; first compound 0.8 µM): 0.561 | relative viability ([4]; first compound 2.53 µM): 0.498 | relative viability ([4]; first compound 8 µM): 0.574
